Experimental data: publication PMC10985088, “Synthesis and biological evaluation of echinomycin analogues as potential colon cancer agent” (Scientific Reports, 2024)
Where two headings read alike, the source gives them in different places.

Assays:
[1] = test system: SW620 cells; assay: WST-8 cytotoxicity assay, SW620; conditions: read-out: IC50 SW620; human colon cancer cell, 72 h, mean ± SE (n = 3)
Description: With a range of chromophore analogues in hand, their toxicity to SW620 cells was investigated by WST assays.
Basically, the evaluation was performed using methods previously reported by our group[20],[23]. Cytotoxic activities of compounds against MIA PaCa-2 (American Type Culture Collection), SW620 (European Collection of Authenticated Cell Cultures) were measured by WST-8 assay according to manufacturer’s protocol. Briefly, cells (1 × 10^4 cells/well) in a 96-well plate were cultured in medium (for MIA PaCa-2, D-MEM (Wako, Japan) containing 10% fetal bovine serum (Funakoshi, Japan), 100 units/mL penicillin G and 100 µg/mL streptomycin (Wako, Japan), for SW620, RPMI-1640 (Wako, Japan) containing 10% fetal bovine serum, 100 units/mL penicillin G and 100 µg/mL streptomycin) were cultured at 37 °C for 24 h under 5% CO2 atmosphere. Then, cells were treated with test compounds (final DMSO concentration was 1%) at 37 °C for 72 h under 5% CO2 atmosphere. Then, cells were treated with a solution of Cell Counting Kit-8® (Dojindo, Japan) for 3 h. After that, cell viabilities were determined based on the measurement of absorption at 450 nm of the wells by using TECAN Infinite® M200 microplate reader. The results were expressed as a percentage of the negative control (cells treated with DMSO only), and that value was fixed at 100%.

[2] = test system: HIF-1α-mediated transcription; assay: HRE reporter gene assay in SW620 cells overexpressing HIF-1α; assay type: cell-based, human; conditions: SW620 transiently overexpressing HIF-1α, 16 h
Description: Echinomycin is known to inhibit the HIF-1 pathway by inhibiting the binding of HIF-1α to HRE[15],[21],[22]. The ability of 3 to inhibit HIF-1α-mediated transcription was investigated by using an HRE reporter gene assay in SW620 cells transiently overexpressing HIF-1α.
Figure 5 Effect of echinomycin (1), 2 and 3 on HIF-1α-dependent transcription in SW620 cells. SW620 cells were transiently transfected with empty vector pCI-neo-3 × FLAG or HIF-1α expression vector pCI-neo-3 × FLAG-HIF-1α, together with pGL3-5 × HRE-Luc and pGL4.75 [hRluc/CMV]. One day after transfection, echinomycin (1), 2, or 3 was added to the cell culture media and incubated for an additional 16 h. The cells were lysed, and a dual luciferase assay was performed. Firefly luciferase activity was normalized to Renilla luciferase activity, and the data are presented as fold induction relative to the values obtained in cells DMSO-treated cells transfected with empty vector. The error bars represent standard deviations (n = 3). *P < 0.05 and **P < 0.01 compared to DMSO-treated cells transfected with HIF-1α (Student’s test).
Basically, the assay was performed using methods previously reported by our group. […]

[3] = Hepatic microsomal stability assay, mouse; assay type: in vitro ADME; conditions: microsomes, 1 μM, 0.2 mg/mL microsomes, 37 °C, 30 min
Description: Before investigating the in vivo efficacy of 3, its metabolic stability was evaluated by treatment with human or mouse liver microsomes at 37 °C for 30 min, and the remaining analogues were analyzed by LC–MS/MS (Table 3). […] This means that approximately 67% of 3 was unaffected by human liver microsomes.
Basically, the analysis was performed using methods previously reported. Disappearance of the parent compound over time was measured by using the amount of drug at time zero as a reference. After 5 min of preincubation, 1 mM NADPH (final concentration, the same applies to the following, NADPH( +)) or 0.1 M phosphate buffer (pH 7.4, NADPH(−))) was added to a mixture containing 1 μM of the test compound, 0.2 mg/mL of human or mouse liver microsomes (Sekisui XenoTech LLC (Kansas City, KS)), 1 mM EDTA and 0.1 M phosphate buffer (pH 7.4) and incubated at 37 °C for 30 min by rotation at 60 rpm. An aliquot of 50 μL of the incubation mixture was sampled and added to 250 μL of chilled acetonitrile/internal standard (IS). After centrifuging for 15 min at 3150×g (4 °C), the supernatants were analyzed by LC–MS/MS. Hepatic microsomal stability (mL/min/kg, CLint) was calculated according to the previous report, using 48.8 and 45.4 mg MS protein/g liver and 25.7 and 87.5 g liver/kg body weight as scaling factors for human and mouse, respectively.
Basically, the analysis was performed using methods previously reported. An LC-MS8060 instrument equipped with a Shimadzu Nexera series LC system (Shimadzu, Kyoto, Japan) was used. All compounds were analyzed in multi-reaction monitoring mode under electron spray ionization conditions. The analytical column used was a […] C18 MGIII (3 μm × 2.0 mmID × 35 mm; OSAKA SODA, Osaka, Japan) at 50 °C. The gradient mobile phase consisted of 0.1% formic acid in water (mobile phase A,) and 0.1% formic acid in acetonitrile (mobile phase B) at a total flow rate of 1 mL/min. The initial mobile phase composition was 10% B, which was held constant for 0.2 min, increased in a linear fashion to 90% B over 1 min, then held constant for 0.8 min, and finally brought back to the initial condition of 10% B over 0.01 min and re-equilibrated for 1 min. The transitions (precursor ion > product ion) of echinomycin, 3 and IS (methyl testosterone) are 1101.45 > 1053.5 (positive), 1083.5 > 523.95 (negative), and 303.1 > 109.1 (positive), respectively.

[4] = Serum biochemistry / blood examination of treated mice; assay type: in vivo; conditions: 0.4 µg/mouse i.p., Day 14
Description: Toxicity Body weight change is an indicator of systemic toxicity. Accordingly, the body weights of mice intraperitoneally treated with different doses (0.04 and 0.4 µg/mouse) of either 1 or 3 were measured (Fig. S1). […] A blood hematological examination (including nineteen parameters) was also conducted on these mice on Day 14 (Fig. S2). There were no significant changes in almost any of the parameters in the mice treated with either 1 or 3 at doses of 0.04 or 0.4 µg/mouse.
Male BALB/c mice (7 weeks old) were purchased from Charles River Laboratories Japan, Inc. Each compound was intraperitoneally injected daily for 14 days. […] Serum was collected by centrifuging blood at 5000 rpm for 10 min. Biochemistry was performed in Oriental Yeast Co., Ltd, Japan.

For `CS[C@H]1SC[C@H]2C(=O)N(C)[C@@H](C(C)C)C(=O)OC[C@@H](NC(=O)c3cnc4ccccc4n3)C(=O)N[C@@H](C)C(=O)N(C)[C@@H]1C(=O)N(C)[C@@H](C(C)C)C(=O)OC[C@@H](NC(=O)c1cnc3ccccc3n1)C(=O)N[C@@H](C)C(=O)N2C` [Compound 1, Echinomycin], the IC50 [1] was 2.5 ± 0.8 nM, the “HIF-1α-induced HRE reporter activity” value [2] was “inhibited” and the CLint scaled ([3]; NADPH(+), read-out: Metabolic stability (CLint) Mouse NADPH(+)) was less than 69.8 mL/min/kg. For the same compound, the CLint scaled ([3]; NADPH(−), read-out: Metabolic stability (CLint) Mouse NADPH(−)) was less than 69.8 mL/min/kg, the “alanine aminotransferase (ALT)” value [4] was “increase” and the “aspartate aminotransferase (AST)” value [4] was “increase”. For the same compound, the “lactate dehydrogenase (LDH)” value [4] was “increase” and the “total bilirubin (T-BIL)” value [4] was “decrease”.
